pIC50: −log10 of the molar value.
Assays:
Format in all cases: cell-based, human
Details in all cases: 3 days with compound at 0.02 to 5 μM, CCK-8, A450, 50% inhibition of cell viability
[1] = test system: TC71 (Type 1, 7/6) cells (Ewing Sarcoma cell line); assay: Cell growth inhibition, modified tetrazolium salt assay (CCK-8 kit), TC71 cells
Procedure: (§1) A modified tetrazolium salt assay using the CCK-8 kit (Sigma-Aldrich; St Louis, Mo.) was used to measure the inhibition of human tumor cell growth. Tumor cells (5000-7500 per well) were added to 96 well plates and allowed to attach for 4-5 hours. Compounds were serially diluted and added in triplicate at a concentration of 0.02 to 5 μM. DMSO was included as a vehicle control. Cells were incubated in the presence of compound for 3 days. After incubation CCK-8 reagent was added to each well and incubated for 2-4 hours. Viable cells were quantitated spectrophotometrically at a wavelength of 450 nm. Percent viability of each sample was calculated from the A450 values as follows: % viability=(A450 nm sample/A450 nm DMSO-treated cells×100). The IC50 was defined as the concentration that gave rise to 50% inhibition of cell viability. IC50 activities of particular compounds were determined using SKES (type 2, 7/5) cells (Ewing Sarcoma cell line), TC71 (Type 1, 7/6) cells (Ewing Sarcoma cell line), and A4573 (Type 3, 10/6) cells (Ewing Sarcoma cell line). […] TK-216 is a YK-4-279 clinical derivative that is in phase 1 for patients with relapsed or refractory Ewing sarcoma. Preclinical testing has been conducted for TK-216 in lymphoma models. Test results for the analogs were compared to those for TK-216 and YK-4-279.

[2] = test system: SKES (type 2, 7/5) cells (Ewing Sarcoma cell line); assay: Cell growth inhibition, modified tetrazolium salt assay (CCK-8 kit), SKES cells
Procedure: as §1

[3] = test system: A4573 (Type 3, 10/6) cells (Ewing Sarcoma cell line); assay: Cell growth inhibition, modified tetrazolium salt assay (CCK-8 kit), A4573 cells
Procedure: as §1

| Compound | pIC50 ([1]; Homo sapiens, TC-71, 72 h) | pIC50 ([2]; Homo sapiens, 72 h) | pIC50 ([3]; Homo sapiens, 72 h) | pIC50 [1] | pIC50 [2] | pIC50 [3] |
| --- | --- | --- | --- | --- | --- | --- |
| CNC(=O)Oc1ccc(C(=O)CC2(O)C(=O)Nc3c(Cl)ccc(Cl)c32)cc1 (stereo not drawn) [TK Analog 13] | < 5.30 | < 5.30 | < 5.30 | – | – | – |
| CN(C)c1ccc(-c2cc3c(nn2)[nH]c2c(Cl)ccc(Cl)c23)cc1 [TK Analog 14] | < 5.30 | < 5.30 | < 5.30 | – | – | – |
| COc1ccc2nn(CC3(O)C(=O)Nc4c(Cl)ccc(Cl)c43)cc2c1 (stereo not drawn) [TK Analog 16A] | < 5.30 | < 5.30 | < 5.30 | – | – | – |
| COc1ccc2c(cnn2CC2(O)C(=O)Nc3c(Cl)ccc(Cl)c32)c1 (stereo not drawn) [TK Analog 16] | < 5.30 | > 5.30 | < 5.30 | – | – | – |
| COc1ccc2c(CC3(O)C(=O)Nc4c(Cl)ccc(Cl)c43)noc2c1 (stereo not drawn) [TK Analog 17] | < 5.30 | < 5.30 | < 5.30 | – | – | – |
| COc1ccc2c(CC3(O)C(=O)Nc4c(Cl)ccc(Cl)c43)nsc2c1 (stereo not drawn) [TK Analog 18] | < 5.30 | > 5.30 | < 5.30 | – | – | – |
| O=C(CC1(O)C(=O)Nc2c(Cl)ccc(Cl)c21)c1ccc(C2CC2)nc1 (stereo not drawn) [TK Analog 20] | < 5.30 | < 5.30 | < 5.30 | – | – | – |
| O=C(CC1(O)C(=O)Nc2c(Cl)ccc(Cl)c21)c1ccc(C2CC2)cn1 (stereo not drawn) [TK Analog 21] | < 5.30 | < 5.30 | < 5.30 | – | – | – |
| O=C(CC1(O)C(=O)Nc2c(Cl)ccc(Cl)c21)c1ccc(C2CC2)s1 (stereo not drawn) [TK Analog 22] | < 5.30 | > 5.30 | < 5.30 | – | – | – |
| O=C(CC1(O)C(=O)Nc2c(Cl)ccc(Cl)c21)c1cc(C2CC2)cs1 (stereo not drawn) [TK Analog 23] | < 5.30 | < 5.30 | < 5.30 | – | – | – |
| O=C(CC1(O)C(=O)Nc2c(Cl)ccc(Cl)c21)c1csc(C2CC2)c1 (stereo not drawn) [TK Analog 24] | < 5.30 | < 5.30 | < 5.30 | – | – | – |
| O=C(CC1(O)C(=O)Nc2c(Cl)ccc(Cl)c21)c1ccc(C2CC2)cc1 (stereo not drawn) [TK-216-2, reference compound] | – | – | – | > 5.30 | > 5.30 | > 5.30 |

Second part, the compound after the results:

| pIC50 ([1]; Homo sapiens, TC-71, 72 h) | pIC50 ([2]; Homo sapiens, 72 h) | pIC50 ([3]; Homo sapiens, 72 h) | pIC50 [1] | pIC50 [2] | pIC50 [3] | Compound |
| --- | --- | --- | --- | --- | --- | --- |
| > 5.30 | > 5.30 | > 5.30 | – | – | – | O=C(CC1(O)C(=O)Nc2c(Cl)ccc(Cl)c21)c1ccc(C2(F)CC2)cc1 (stereo not drawn) [TK Analog 2] |
| < 5.30 | > 5.30 | < 5.30 | – | – | – | NC1(c2ccc(C(=O)CC3(O)C(=O)Nc4c(Cl)ccc(Cl)c43)cc2)CC1 (stereo not drawn) [TK Analog 3] |
| < 5.30 | < 5.30 | < 5.30 | – | – | – | O=C(CC1(O)C(=O)Nc2c(Cl)ccc(Cl)c21)c1ccc(OC(F)F)cc1 (stereo not drawn) [TK Analog 4] |
| < 5.30 | < 5.30 | < 5.30 | – | – | – | C#Cc1ccc(C(=O)CC2(O)C(=O)Nc3c(Cl)ccc(Cl)c32)cc1 (stereo not drawn) [TK Analog 5] |
| > 5.30 | > 5.30 | > 5.30 | – | – | – | COc1ccc(C(=O)CC2C(=O)Nc3c(Cl)ccc(Cl)c32)cc1 (stereo not drawn) [TK Analog 6] |
| > 5.30 | > 5.30 | > 5.30 | – | – | – | COc1ccc(C(=O)CC2(F)C(=O)Nc3c(Cl)ccc(Cl)c32)cc1 (stereo not drawn) [TK Analog 7] |
| < 5.30 | > 5.30 | < 5.30 | – | – | – | COc1ccc(C(=O)CC2(N)C(=O)Nc3c(Cl)ccc(Cl)c32)cc1 (stereo not drawn) [TK Analog 8] |
| < 5.30 | > 5.30 | < 5.30 | – | – | – | O=C(CC1(O)C(=O)Nc2c(Cl)ccc(Cl)c21)c1ccc2occc2c1 (stereo not drawn) [TK Analog 9] |
| > 5.30 | > 5.30 | > 5.30 | – | – | – | O=C(CC1(O)C(=O)Nc2c(Cl)ccc(Cl)c21)c1ccc2sccc2c1 (stereo not drawn) [TK Analog 10] |
| > 5.30 | > 5.30 | > 5.30 | – | – | – | O=C(CC1(O)C(=O)Nc2c(Cl)ccc(Cl)c21)c1ccc2[nH]ccc2c1 (stereo not drawn) [TK Analog 11] |
| > 5.30 | > 5.30 | > 5.30 | – | – | – | COc1ccc(C(=O)CC2(O)C(=O)Nc3c(Cl)ccc(Cl)c32)c(F)c1 (stereo not drawn) [TK Analog 15A] |
| > 5.30 | > 5.30 | > 5.30 | – | – | – | O=C(CC1(O)C(=O)Nc2c(Cl)ccc(Cl)c21)c1ccc2ccccc2c1 (stereo not drawn) [TK Analog 19] |
| > 5.30 | > 5.30 | > 5.30 | – | – | – | COc1ccc(C(=O)CC2(O)C(=O)Nc3c(Cl)ccc(Cl)c32)cc1 (stereo not drawn) [YK-4-279, 4,7-dichloro-3-hydroxy-3-(2-(4-methoxyphenyl)-2-oxoethyl)indolin-2-one, reference compound] |

Source: patent US10711008B2, “Indoline analogs and uses thereof” (Oncternal Therapeutics, Inc., priority 2016, dated 2020)
